# Source: publication PMC6284057, “Combined Antibacterial Effects of Goat Cathelicidins With Different Mechanisms of Action” (Frontiers in Microbiology, 2018)
# Read-outs that look alike come from different tables or passages of the source. Positions of bridges follow the written chain, without caps; N, C: chain ends. Non-standard residues stand in square brackets, D forms with d. Residues, ends and D or L forms follow the SMILES beside them. No end group written: not given here. *: point of attachment. X1 = CC[C@H](C)CCCCC(=O)*; Dab = NCC[C@H](N)C(=O)O
# Tests used:
# [1] = tested on: A. baumannii (XDR CI 2675); test: microbe, parasite or virus in culture; assay type: cell-based, Acinetobacter baumannii; details: read-out: Minimum inhibitory concentration
# Protocol: (§1) Antimicrobial assay was performed as described previously ([Panteleev et al., 2017b]). Briefly, mid-log phase bacterial test cultures were diluted with the 2× Mueller-Hinton broth (MH, Sigma) supplemented with 1.8% NaCl or without it so that to reach a final cell concentration of 10^6 CFU/ml. 50 μl aliquots of the obtained bacterial suspension were added to 50 μl of the peptide solutions serially diluted with 0.1% water solution of bovine serum albumin (BSA) in 96-well flat-bottom polystyrene microplates (Eppendorf #0030730011). After incubation at 37°C and 900 rpm for 24 h the minimum inhibitory concentrations (MIC) were determined as the lowest peptide concentrations that prevented growth of a test microorganism observed as visible turbidity. The results were expressed as the median values determined on the basis of at least three independent experiments performed in triplicate.
# E. coli (XDR CI 1057) = test: microbe, parasite or virus in culture; assay type: cell-based, Escherichia coli
# Protocol: as §1
# [2] = tested on: P. mirabilis (XDR CI 3423); test: microbe, parasite or virus in culture; assay type: cell-based, Proteus mirabilis; details: Table S2, XDR clinical isolate; NaCl content of medium not stated; read-out: Minimum inhibitory concentration
# Protocol: as §1
# E. coli ML-35p [3] = test: Resistance induction experiment; assay type: cell-based, Escherichia coli; details: after 25 passages under selection; MH broth, 0.9% NaCl
# Protocol: (§2) Resistance induction experiments were performed using the previously described method ([Chernysh et al., 2015]) with some modifications. Briefly, on day 1, the overnight culture of wild-type bacteria was diluted with the 2× MH broth containing 1.8% NaCl so that to reach a final cell concentration of 10^6 CFU/ml. 50 μl aliquots of the obtained bacterial suspension were added to 50 μl of the peptide solutions serially diluted with 0.1% water solution of BSA in 96-well microplates (Eppendorf #0030730011). After incubation at 37°C and 900 rpm for 22 ± 2 h, MICs were determined as described above. For each subsequent daily transfer, 5 μl of the inoculum taken from the first well with a sub-inhibitory drug concentration were diluted with 1 ml of the fresh 2× MH broth supplemented with 1.8% NaCl. […] 26 repeated passages in the presence of antimicrobial agents were made for each bacterial strain during the experiment. […] Control serial passages in the absence of the agent were also performed.
# E. coli XDR CI 1057 = details: MH broth, 0.9% NaCl
# Protocol: Resistance induction experiments were performed using the previously described method ([Chernysh et al., 2015]) with some modifications. Briefly, on day 1, the overnight culture of wild-type bacteria was diluted with the 2× MH broth containing 1.8% NaCl so that to reach a final cell concentration of 10^6 CFU/ml. 50 μl aliquots of the obtained bacterial suspension were added to 50 μl of the peptide solutions serially diluted with 0.1% water solution of BSA in 96-well microplates (Eppendorf #0030730011). After incubation at 37°C and 900 rpm for 22 ± 2 h, MICs were determined as described above. For each subsequent daily transfer, 5 μl of the inoculum taken from the first well with a sub-inhibitory drug concentration were diluted with 1 ml of the fresh 2× MH broth supplemented with 1.8% NaCl. […] Control serial passages in the absence of the agent were also performed.
# E. cloacae (XDR CI 4172) = test: microbe, parasite or virus in culture; assay type: cell-based, Enterobacter cloacae; details: read-out: Minimum inhibitory concentration
# Protocol: as §1
# [4] = tested on: K. pneumoniae (XDR CI 1056); test: microbe, parasite or virus in culture; assay type: cell-based, Klebsiella pneumoniae; details: Table S2, XDR clinical isolate; NaCl content of medium not stated; read-out: Minimum inhibitory concentration
# Protocol: as §1
# [5] = tested on: E. coli XDR CI 1057 (26 days with synergy combination); details: Table 4, strain after 26 days with synergy combination (selection in MH broth with 0.9% NaCl)
# Protocol: as §1, with “After incubation at 37°C and 900 rpm for 24 h the minimum inhibitory concentrations (MIC) were determined as the lowest peptide concentrations that prevented growth of a test microorganism observed as visible turbidity.” left out
# as §2
# [6] = tested on: E. coli XDR CI 1057 (26 days without antimicrobial agent)
# Protocol: as §1, with “After incubation at 37°C and 900 rpm for 24 h the minimum inhibitory concentrations (MIC) were determined as the lowest peptide concentrations that prevented growth of a test microorganism observed as visible turbidity.” left out
# as §2
# [7] = tested on: E. coli XDR CI 1057 (26 days with mini-ChBac7.5Nα)
# Protocol: as §1, with “After incubation at 37°C and 900 rpm for 24 h the minimum inhibitory concentrations (MIC) were determined as the lowest peptide concentrations that prevented growth of a test microorganism observed as visible turbidity.” left out
# as §2
# [8] = tested on: P. aeruginosa (XDR CI 1049); test: microbe, parasite or virus in culture; assay type: cell-based, Pseudomonas aeruginosa; details: Table S2, XDR clinical isolate; NaCl content of medium not stated; read-out: Minimum inhibitory concentration
# Protocol: as §1
# [9] = tested on: E. coli V102G mutant strain (SbmA); set-up: method as in Corbalan et al., 2013; details: ref Corbalan et al., 2013; cited from earlier work
# [10] = tested on: mammalian cell lines (HEK293T, HEF); test: Cytotoxicity (MTT assay); assay type: cell-based, human; details: HEK293T and HEF, 24 h incubation
# Protocol: Hemolytic activity of the peptides was tested against the fresh suspension of human red blood cells (hRBC) using the hemoglobin release assay as described previously ([Panteleev et al., 2016]). Three experiments were performed with the hRBC from blood samples obtained from independent donors. The obtained data were represented as average means with standard deviations. The cytotoxicity of the peptides against HEK293T (transformed human embryonic kidney cells) and HEF (human embryonic fibroblasts) cell lines was studied using the colorimetric 3-(4,5-dimethylthiazol-2-yl)-2,5-diphenyltetrazolium bromide (MTT) dye reduction assay according to ([Panteleev and Ovchinnikova, 2017]). Three independent experiments were performed for each peptide. Half maximal inhibitory concentration (IC50) values were estimated as described previously ([Kuzmin et al., 2018]).
# P. aeruginosa PAO1 = assay type: cell-based, Pseudomonas aeruginosa; details: Mueller-Hinton broth, 10^6 CFU/ml, 0.1% BSA, 37°C, 24 h, median of at least 3 experiments
# Protocol: as §1
# E. coli ML-35p [11] = assay type: cell-based, Escherichia coli; details: Mueller-Hinton broth, 10^6 CFU/ml, 0.1% BSA, 37°C, 24 h, median of at least 3 experiments
# Protocol: as §1
# E. coli C600 = assay type: cell-based, Escherichia coli; details: Mueller-Hinton broth, 10^6 CFU/ml, 0.1% BSA, 37°C, 24 h, median of at least 3 experiments
# Protocol: as §1
# E. faecalis ATCC 29212 = assay type: cell-based, Enterococcus faecalis; details: Mueller-Hinton broth, 10^6 CFU/ml, 0.1% BSA, 37°C, 24 h, median of at least 3 experiments
# Protocol: (§3) Briefly, mid-log phase bacterial test cultures were diluted with the 2× Mueller-Hinton broth (MH, Sigma) supplemented with 1.8% NaCl or without it so that to reach a final cell concentration of 10^6 CFU/ml. 50 μl aliquots of the obtained bacterial suspension were added to 50 μl of the peptide solutions serially diluted with 0.1% water solution of bovine serum albumin (BSA) in 96-well flat-bottom polystyrene microplates (Eppendorf #0030730011). […] The results were expressed as the median values determined on the basis of at least three independent experiments performed in triplicate.
# S. aureus ATCC 29213 = assay type: cell-based, Staphylococcus aureus; details: Mueller-Hinton broth, 10^6 CFU/ml, 0.1% BSA, 37°C, 24 h, median of at least 3 experiments
# Protocol: as §3
# B. subtilis B-886 = assay type: cell-based, Bacillus subtilis; details: Mueller-Hinton broth, 10^6 CFU/ml, 0.1% BSA, 37°C, 24 h, median of at least 3 experiments
# Protocol: as §1
# S. aureus 209P = assay type: cell-based, Staphylococcus aureus; details: Mueller-Hinton broth, 10^6 CFU/ml, 0.1% BSA, 37°C, 24 h, median of at least 3 experiments
# Protocol: as §1
# K. pneumoniae (CI 287) = assay type: cell-based, Klebsiella pneumoniae; details: Mueller-Hinton broth, 10^6 CFU/ml, 0.1% BSA, 37°C, 24 h, median of at least 3 experiments
# Protocol: as §1
# M. luteus B-1314 = assay type: cell-based, Micrococcus luteus; details: Mueller-Hinton broth, 10^6 CFU/ml, peptide diluted in 0.1% BSA, 37°C, 24 h, median of at least 3 experiments in triplicate
# Protocol: as §1
# [12] = tested on: mini-ChBac7.5Nα-resistant E. coli strain; details: peptide alone, before addition of ChMAP-28
# Protocol: as §1, with “After incubation at 37°C and 900 rpm for 24 h the minimum inhibitory concentrations (MIC) were determined as the lowest peptide concentrations that prevented growth of a test microorganism observed as visible turbidity.” left out
# as §2
# [13] = Table S2, XDR clinical isolate, NaCl content of medium not stated
# [14] = 0.9% NaCl, Mueller-Hinton broth, 10^6 CFU/ml, 0.1% BSA, 37°C, 24 h, median of at least 3 experiments
# [15] = Without NaCl, Mueller-Hinton broth, 10^6 CFU/ml, 0.1% BSA, 37°C, 24 h, median of at least 3 experiments
compound,measurement,setting,value
"CC[C@H](C)CCCCC(=O)N[C@@H](CCN)C(=O)N[C@H](C(=O)N[C@@H](CCN)C(=O)N[C@H]1CCNC(=O)[C@H]([C@@H](C)O)NC(=O)[C@H](CCN)NC(=O)[C@H](CCN)NC(=O)[C@H](CC(C)C)NC(=O)[C@@H](Cc2ccccc2)NC(=O)[C@H](CCN)NC1=O)[C@@H](C)O [Polymyxin B, reference compound] (X1-[Dab]T[Dab][Dab][Dab][dF]L[Dab][Dab]T; lactam 4-C (inferred); N-terminus assumed)",MIC,[1]; [13],0.125 µM
same,Minimum inhibitory concentration,"E. coli (XDR CI 1057); Table 4, strain at 0 days of selection experiment (selection in MH broth with 0.9% NaCl)",0.125 µM
same,Minimum inhibitory concentration,E. coli (XDR CI 1057); [13],0.125 µM
same,MIC,[2],>128 µM
same,increase in MIC value,E. coli ML-35p [3],128 fold
same,increase in MIC value,E. coli XDR CI 1057; after 25 passages under selection,2048 fold
same,MIC value after resistance development,E. coli XDR CI 1057; selection by polymyxin B,> 256 µM
same,MIC,E. cloacae (XDR CI 4172); [13],4 µM
same,MIC,[4],0.25 µM
same,Minimum inhibitory concentration,[5],0.06 µM
same,Minimum inhibitory concentration,"[6]; Table 4, strain after 26 days without antimicrobial agent (selection in MH broth with 0.9% NaCl)",0.125 µM
same,Minimum inhibitory concentration,"[7]; Table 4, strain after 26 days with mini-ChBac7.5Nα (selection in MH broth with 0.9% NaCl)",0.125 µM
same,MIC,[8],2 µM
"Bac7(1–16): minimal active fragment of the bovine 60-residue Pro-rich peptide Bac7 (RRIRPRPPRLPRPRPR; Bactenecin 7; UniProt P19661 131-146, looked up, fragment)",MIC,[9],156 µM
RRLRPRRPRLPRPRPR [mini-ChBac7.5Nα(1–16)],concentrations at which cytotoxic activity was shown,[10],> 25 µM
same,Minimum inhibitory concentration,P. aeruginosa PAO1; 0.9% NaCl,>32 µM
same,Minimum inhibitory concentration,P. aeruginosa PAO1; Without NaCl,16 µM
same,Minimum inhibitory concentration,E. coli ML-35p [11]; 0.9% NaCl,8 µM
same,Minimum inhibitory concentration,E. coli ML-35p [11]; Without NaCl,0.5 µM
same,Minimum inhibitory concentration,E. coli C600; 0.9% NaCl,16 µM
same,Minimum inhibitory concentration,E. coli C600; Without NaCl,2 µM
same,Minimum inhibitory concentration,E. faecalis ATCC 29212; 0.9% NaCl,>32 µM
same,Minimum inhibitory concentration,E. faecalis ATCC 29212; Without NaCl,>32 µM
same,MIC,[1]; [14],>32 µM
same,MIC,[1]; [15],4 µM
same,Minimum inhibitory concentration,S. aureus ATCC 29213; 0.9% NaCl,>32 µM
same,Minimum inhibitory concentration,S. aureus ATCC 29213; Without NaCl,>32 µM
same,Minimum inhibitory concentration,B. subtilis B-886; 0.9% NaCl,>32 µM
same,Minimum inhibitory concentration,B. subtilis B-886; Without NaCl,1 µM
same,Minimum inhibitory concentration,S. aureus 209P; 0.9% NaCl,>32 µM
same,Minimum inhibitory concentration,S. aureus 209P; Without NaCl,8 µM
same,Minimum inhibitory concentration,K. pneumoniae (CI 287); 0.9% NaCl,>32 µM
same,Minimum inhibitory concentration,K. pneumoniae (CI 287); Without NaCl,4 µM
same,Minimum inhibitory concentration,M. luteus B-1314; 0.9% NaCl,8 µM
same,Minimum inhibitory concentration,M. luteus B-1314; Without NaCl,1 µM
same,MIC,E. cloacae (XDR CI 4172); [14],>32 µM
same,MIC,E. cloacae (XDR CI 4172); [15],1 µM
same,Minimum inhibitory concentration,"[6]; With 0.9% NaCl, control strain, 26 days without antimicrobial agent",16 µM
same,Minimum inhibitory concentration,"[6]; Without salt, control strain, 26 days without antimicrobial agent",2 µM
same,MIC of the individual peptide,[12],> 256 µM
same,Minimum inhibitory concentration,"[7]; With 0.9% NaCl, resistant strain, 26 days with mini-ChBac7.5Nα",>256 µM
same,Minimum inhibitory concentration,"[7]; Without salt, resistant strain, 26 days with mini-ChBac7.5Nα",16 µM
